# Read-outs that look alike come from different tables or passages of the source.
# What was measured:
# [1] = test system: DNA polymerase; assay: ddNTP versus dNTP incorporation (discrimination) in primer extension / sequencing reaction with metal ions; type: biochemical; details: for effect of cation on DNA synthesis / sequencing reaction: monovalent and divalent cations tested
# Method: In order to determine whether any particular DNA polymerase, in combination with any particular chain terminating agent, or other component of a sequencing reaction mixture, is useful in this invention, a standard sequencing reaction is performed, as described below and shown in the drawings, and the extent of band formation, and the uniformity of nearby bands in a sequencing gel, reviewed. […] Adjacent band uniformity within a two-fold or less range is useful in this invention, preferably the uniformity is within a 1.0-1.5 fold range. Similarly, determination of optimum cation concentration, or of other potential cations useful in the invention, is determined by use of this sequencing reaction under various conditions. For example, cations are tested in ranges from 0.005-100 mM. An example of such an experiment follows:
# DNA synthesis is measured using a 17-mer primer of sequence 5'-[…]-3' (New England Biolabs catalog number 1211) that has been labeled with ^32 P at its 5' end and annealed to single-stranded mGPl-2 DNA. Tabor et al., proc. Nat. Acad. Sci. USA 84:4767 (1987) and Tabor et al., J. Biol. Chem. 262:16212 (1987). Any other template is equally useful in this reaction. This primer-template is used in a reaction that contains a DNA polymerase in the presence of a range of concentrations of a metal ion. Reactions are carried out in the presence of a given concentration of all 4 deoxynucleotides (dNTPS, 20-200 μM), and over a range of concentrations of one dideoxynucleotide (ddNTP, in this example, ddGTP from 10-500 μM). The DNA products are then analyzed by polyacrylamide gel electrophoresis, where DNA synthesis is detected as extensions of the primer producing bands, representing extensions of various molecular weights, in the gel.
# In a specific example, each reaction mixture (10μl) contained 0.1 μg^32 P-primer-template, 40 mM Tris-HCl pH 7.5, 5 mM dithiothreitol (DTT) 5μM to 20mM metal ion, 10 to 500 μM 4dNTPs, 1 to 500 μM ddNTPs, and 2 units of a DNA polymerase. Incubation was at 37° C. for 15 min. The reaction was stopped by addition of 10μl of 90% formamide, 50 mM EDTA, and 0.1% bromophenol blue.
# Electrophoresis was at 2000 volts for 2 hours. The gel was fixed in 50% methanol, 10% acetic acid for 30 min., dried, and exposed, for autoradiography. Band intensity in each lane of the resulting film was determined by scanning each lane with a densitometer. The densitometer used was a double-beam recording instrument, model MkIIIC (Joyce, Loebl & Co., Ltd., Gateshead-on-tyne, II, England). Any suitable densitometer instrument for scanning gels will also work. Alternatively, the uniformity of the resulting bands can be determined by scanning the DNA products as they are electrophoresed within the gel.
# The ability to incorporate a given ddNTP compared to the corresponding dNTP for any one enzyme is measured as the ratio of ddNTP to dNTP necessary to allow DNA synthesis that terminates in a fixed range, detected as producing bands of no greater than a fixed molecular weight. That is, the bands produced in the reaction end within a specified range in the sequencing gel. Thus, if one enzyme discriminates 1000-fold greater against a given ddNTP compared to another enzyme, a 1000-fold higher ratio of ddNTP to dNTP will be necessary to obtain bands terminating at the corresponding sites in the same range of the gel.
# [2] = target: genetically modified T7 DNA polymerase (ΔLys118-Arg145) (Escherichia phage T7, UniProt P00581, DEL118-145)
# [3] = target: T1, genetically modified T7 DNA polymerase (Escherichia phage T7, UniProt P00581, DEL118-145); type: biochemical
# T1 construct: made in house; host or cells: E. coli strain K38/pTrx-3/pGP5-8
# T1 sequence (P00581 other isoform, or with tags, fused parts or gaps DEL118-145): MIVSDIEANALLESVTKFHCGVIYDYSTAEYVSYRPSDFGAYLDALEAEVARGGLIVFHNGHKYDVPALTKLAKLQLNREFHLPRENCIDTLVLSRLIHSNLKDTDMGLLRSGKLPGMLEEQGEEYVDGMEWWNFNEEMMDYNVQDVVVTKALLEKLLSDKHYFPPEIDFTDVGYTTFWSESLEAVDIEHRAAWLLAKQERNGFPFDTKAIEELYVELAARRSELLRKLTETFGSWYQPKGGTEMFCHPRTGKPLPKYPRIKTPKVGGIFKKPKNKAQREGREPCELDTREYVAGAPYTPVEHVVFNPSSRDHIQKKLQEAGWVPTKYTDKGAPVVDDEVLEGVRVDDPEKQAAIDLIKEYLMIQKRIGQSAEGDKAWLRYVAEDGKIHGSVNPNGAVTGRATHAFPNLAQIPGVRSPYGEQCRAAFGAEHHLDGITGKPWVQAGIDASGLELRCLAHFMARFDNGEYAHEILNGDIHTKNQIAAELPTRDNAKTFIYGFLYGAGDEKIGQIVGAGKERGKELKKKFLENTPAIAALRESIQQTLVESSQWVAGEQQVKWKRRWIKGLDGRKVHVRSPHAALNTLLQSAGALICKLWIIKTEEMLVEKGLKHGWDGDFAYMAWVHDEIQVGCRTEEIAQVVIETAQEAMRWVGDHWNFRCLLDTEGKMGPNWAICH
# T1 sequence (P0AA25 2-109, stated change not applied, further chain): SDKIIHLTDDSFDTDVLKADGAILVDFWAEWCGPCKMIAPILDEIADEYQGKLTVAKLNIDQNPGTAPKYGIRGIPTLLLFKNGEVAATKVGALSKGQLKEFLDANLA
# Chain of genetically modified T7 DNA polymerase (ΔLys118-Arg145) (P00581 with tags, fused parts or gaps DEL118-145): as the sequence (P00581 other isoform, or with tags, fused parts or gaps DEL118-145) above
compound,measurement,setting,value
[Ba] [Ba],effect of cation on DNA synthesis / sequencing reaction,[1],"no detectable effect, or are detrimental to DNA synthesis"
[Be] [Be],effect of cation on DNA synthesis / sequencing reaction,[1],"no detectable effect, or are detrimental to DNA synthesis"
[Ca] [Ca],effect of cation on DNA synthesis / sequencing reaction,[1],"no detectable effect, or are detrimental to DNA synthesis"
[Ce] [Ce],effect of cation on DNA synthesis / sequencing reaction,[1],"no detectable effect, or are detrimental to DNA synthesis"
[Co] [Co],effect of cation on DNA synthesis / sequencing reaction,[1],"no detectable effect, or are detrimental to DNA synthesis"
[Cr] [Cr],effect of cation on DNA synthesis / sequencing reaction,[1],"no detectable effect, or are detrimental to DNA synthesis"
[Cu] [Cu],effect of cation on DNA synthesis / sequencing reaction,[1],"no detectable effect, or are detrimental to DNA synthesis"
[Na] [Na],effect of cation on DNA synthesis / sequencing reaction,[1],"no detectable effect, or are detrimental to DNA synthesis"
[Ni] [Ni],effect of cation on DNA synthesis / sequencing reaction,[1],"no detectable effect, or are detrimental to DNA synthesis"
[Si] [Si],effect of cation on DNA synthesis / sequencing reaction,[1],"no detectable effect, or are detrimental to DNA synthesis"
[Zn] [Zn],effect of cation on DNA synthesis / sequencing reaction,[1],"no detectable effect, or are detrimental to DNA synthesis"
"O=c1[nH]cnc2c1ncn2[C@H]1CC[C@@H](COP(=O)(O)OP(=O)(O)OP(=O)(O)O)O1 [ddITP, dideoxy ITP, reference compound]",discrimination against ddITP compared to ddGTP,[1]; in the presence of Mn,10 fold
"O=C([O-])CC(C(=O)[O-])C(O)C(=O)[O-].[Na+].[Na+].[Na+] (stereo not drawn) [isocitrate, sodium isocitrate]",optimal isocitrate concentration,[2],40 mM
same,effect of isocitrate on polymerase activity,"[2]; 10 mM magnesium, any amount of isocitrate, FIG. 9",inhibitory effect on polymerase
same,stimulation of polymerase activity,"[2]; t7 dna polymerase, 0.5 h, 40000 µM, pH 7.5",4 fold
[Mg+2] [magnesium],optimum ion concentration in a sequencing reaction (polymerase activity),"[2]; absence of a chelator, FIG. 8",20 mM
same,intensity of underlined bases in triplets versus adjacent bases,[3]; Example 1 sample run with magnesium in place of manganese,2-5 fold
same,variation of nearby band intensity,"[3]; all four ddNTPs at equal concentration, magnesium, FIG. 6",varies greatly
same,variation of nearby band intensity (peak height),"[3]; ddGTP only, magnesium instead of manganese, FIG. 3",≤ 10 fold
[Mn+2] [manganese],optimum ion concentration in a sequencing reaction (polymerase activity),[2],1 mM
same,optimum manganese concentration,[2],5 to 20 mM
same,"difference in band intensity between bases in the triplets TCT, AAG, GCA, CCT","[3]; Example 1, manganese in sequencing buffer, densitometer",at most 20%
same,variation of nearby bands and peaks,"[3]; all four ddNTPs at 0.75 μM each, manganese, FIG. 5",no more than 1.5 fold
Taq polymerase: DNA polymerase used for sequencing,lessening of the requirement for chain terminating agents (dideoxynucleosides),[1]; in the presence of manganese or iron ions,~1000 fold
